Experiment [1] has as its system mammary fibroblasts (MFBs). Nature of the experiment: Collagen abundance in ECM derived from confluent MFBs. It is filed as cell-based, mouse. Conditions: Gln 20% or lower, TGFβ (FIG. 8F). On the procedure: Culture plates were coated with 0.1% gelatin (Sigma) and treated with 1% glutaraldehyde (Sigma) and 1 M ethanolamine (Sigma). Confluent NIH-3T3 cells, MFBs or PSCs were grown for 6 days on coated plates in the presence of […] sodium ascorbate (Sigma) and treated as indicated, and the medium was replaced every other day. Plates were decellularized with 20 mM ammonium hydroxide/0.5% Triton-X 100 for 5 min on a rotating platform. Three times the volume of PBS was added, and ECM was equilibrated overnight at 4° C., followed by four additional PBS washes. For western blot, preheated sample buffer supplemented with 1 mM dithiothreitol (DTT) was added, ECM was scraped off and boiled, and proteins were separated by SDS-PAGE followed by immunoblotting. To measure collagen abundance, fibroblast-derived ECM was stained with the Picro Sirius Red Stain Kit (Abcam) according to the manufacturer's instructions. The stain was extracted with 0.1 M sodium hydroxide (NaOH) and optical density was measured at 550 nm using a microplate reader. Differences in cell number were controlled for by growing cells on separate plates under the same experimental conditions.

Experiment [2] concerns pyruvate carboxylase (PC). Nature of the experiment: [3,4-13C]-Glc tracing in PSCs (PC activity). The class given is cell-based, mouse. The note with it: low Gln (20%), TGFβ 48 hours (FIGS. 10J and 10K). On the procedure:
Cells were plated in six-well cell culture plates at a concentration aimed to reach 0.5-1×10^6 cells at the time of harvest. For quantification of relative metabolite abundance, cells were cultured with glutamine-free DMEM containing different concentrations of L-glutamine and supplemented with 10% dialyzed FBS and in some experiments were treated with TGFβ for 48 hours. For the [U-^13C]and [3,4-^13C]glucose tracing experiments, cells were cultured as above, and in the last 8 hours media was replaced with DMEM without D-glucose and L-glutamine supplemented with 2 mM or 0.2 mM L-glutamine and 10 mM [U-^13C]or [3,4-^13C]D-glucose (Cambridge Isotope Laboratories) and 10% dialyzed FBS. […] For relative quantification of metabolites by gas chromatography-mass spectroscopy (GC-MS), cells were washed briefly with PBS, which was then fully aspirated and metabolism was quenched by immediately adding 1 mL of 80:20 methanol:water stored at −80° C. containing 20 μM deuterated 2-hydroxyglutarate (d5-2HG) as an internal standard. […]
GC-MS measurements were performed as described before^11. Ions used for quantification of metabolite levels were as follows: d5-2HG m/z 354; citrate m/z 465; alpha-ketoglutarate m/z 304; succinate m/z 247; fumarate m/z 245; malate m/z 335; aspartate m/z 232; hydroxyproline m/z 332; proline m/z 216; glutamate m/z 246; glutamine m/z 245; lactate m/z 219; pyruvate m/z 174. […]

On to “TGFβ: transforming growth-factor beta; TGFβ-1 purchased from Peprotech”, for which the “collagen accumulation in the ECM” value in experiment [1] is listed as “could no longer stimulate”. Further, in experiment [2], the PC activity result is given as “suppressed”.

These data come from patent publication US20260152533A1, “COMBINATION INHIBITORS FOR TREATING FIBROSIS” (Memorial Sloan-Kettering Cancer Center, priority 2021, published 2026).
